Patent US20030229132A1, “Small molecule modulators of apoptosis” (priority 2002, published 2003)

Legend:
Jurkat cells [1] = test: Caspase-3 activation in Jurkat cells (immunoblot); format: cell-based, human; details: 50 μM compound or 1 μM staurosporin, 6 hr
Method: (§1) (C) DNA fragmentation analysis. […] Cell viability assay.
(§2) Compounds were then tested for their ability to induce apoptosis in live cells. The ability of the compounds to activate caspase-3 in a Jurkat cell line was first assayed. […] This same pattern was seen when we assayed for the cleavage of poly (ADP-ribose) polymerase (PARP), a cellular substrate of caspases-3 and -7 (see, D. W. Nicholson, Cell Death Differ 6, 1028-42 (1999)). Upon apoptosis, PAR-P is cleaved from a 116 kD to an 85 kD protein.

Jurkat cells [2] = test: PARP cleavage in Jurkat cells (immunoblot); format: cell-based, human; details: 50 μM compound or 1 μM staurosporin, 6 hr
Method: as §1, §2

[3] = test system: cell lines from the NCI cancer panel; test: NCI cancer panel, cell growth by sulforhodamine B staining; format: cell-based
Method: Cells were exposed to serial dilutions of compound 2 continuously for 6 days, and cell growth relative to controls was determined by staining with sulforhodamine B. Some cell lines were excluded for clarity. (A) Dose-response plots for leukemia, melanoma, renal cancer and CNS cancer. (B) Dose-response plots for lung, breast and colon cancers.
Compounds 2-5 additionally were submitted to the National Cancer Institute for screening in the cancer panel. […] Compound 2 exerted a cytostatic effect on the majority of cell lines tested, inhibiting cell growth by 50-100% at 10 μM in 40 out of 48 cell lines tested. In addition, compound 2 exerted a cytotoxic effect, reducing the cell numbers by 10-50% in four cell lines and by 50-100% in eight cell lines from the initial levels when tested at 10 μM. […] Representative dose-response plots for lung, breast and colon cancer cell lines are also shown (FIG. 4B). Results for ovarian and prostate cancer were similar.

[4] = test system: Apaf-1 transfected SK-OV-3 cells; test: Viability of SK-OV-3 cells transiently transfected with Apaf-1; format: cell-based; details: several independent experiments
Method: (A) Jurkat cells were transfected with 20 nM Apaf-1 siRNA for 48 hr and half the cells were lysed and probed with antibodies to Apaf-1, caspase-9, and caspase-3. The other half of the cells was incubated with varying concentrations of (B), compound 2 or (C), Fas ligand for 24 hr and assayed for viability by MTT test. (D) SK-OV-3 cells were transiently transfected with Apaf-1 or vector control for 24 hr and then incubated with vary concentrations of compound 2 and assayed for viability. (E) Cyto c was titrated into SK-OV-3 cell lysate in the presence of 300 μM dATP, with or without 150 nM purified Apaf-1 and 20 μM compound 2 as indicated.
If silencing Apaf-1 in Jurkat cells make them resistant to compound 2 induced apoptosis, then it would be expected that ectopic expression of wildtype Apaf-1 in an Apaf-1 deficient cell line should render cells sensitive to compound 2. As mentioned above, the ovarian cancer cell line SK-OV-3 is deficient in Apaf-1 activity and is resistant to compound 2. Apaf-i was cloned into pcDNA-3 and transiently transfected into SK-OV-3 cells using Fugene (Roche) according to the manufacturer's instructions. Transient transfection of Apaf-1 into SK-OV-3 cells rendered them sensitive to compound 2 cytotoxicity as compared to the vector control (FIG. 5D). […]

caspase-3 activation = test: Caspase-3 activation by gel filtration fractions of Apaf-1 complexes; format: biochemical; details: 20 μM compound, 0.15 μM cyto c; for extent of caspase-3 activation: vehicle alone 0.36
Method: FIG. 7 depicts activity of compounds 1-5 at low cyto c concentrations in a purified system. Apaf-1 was incubated with vehicle, cyto c, or cyto c plus 20 μM compound as indicated, and then separated on a Superose 6 gel filtration column. Individual fractions were assayed for relative Apaf-1 concentrations by capture ELISA (bar graph), or the ability to activate procaspase-3 processing in lysates (line graph). The percent of Apaf-1 in apoptosomes was determined by dividing the amount of Apaf-1 in fractions 8-11 by the total amount of Apaf-1. The extent of caspase-3 activation (given in arbitrary units) corresponds to the area under the curve for fractions 8-11 in each panel. Black bars represent fractions used for calculations.
As the compounds appeared to be acting prior to caspase activation, their effect on the oligomerization of Apaf-1 was assessed (K. Cain, D. G. Brown, C. Langlais, G. M. Cohen, J Biol Chem 274, 22686-92 (1999); K. Cain et al., J Biol Chem 275, 6067-70 (2000)). By gel filtration, Apaf-1 normally runs as a monomer of ˜140 kD (FIG. 7) (see, A. Saleh, S. M. Srinivasula, S. Acharya, R. Fishel, E. S. Alnemri, J Biol Chem 274, 17941-5 (1999)). Incubation of Apaf-1 with 5 μM cyto c induces over 90% of the Apaf-1 to form large complexes of ˜700 kD, whereas incubation with 0.15 μM cyto c concentration allowed only 22% of the Apaf-1 to assemble into complexes. However, the addition of 20 μM compound 2 or 5 at the lower cyto c concentration caused the formation of two higher molecular weight complexes: a major peak that runs at the same retention time as the complex seen at 5 μM cyto c (˜700 kD), and a minor peak that elutes in the void volume. […] To determine if the Apaf-1 complexes induced by the compounds at the lower cyto c concentration are competent for caspase activation, procaspase-9, procaspase-3, and dATP were added to fractions from the gel filtration column and assayed for caspase-3 activation. Fractions from samples that had been incubated with 5 μM cyto c strongly activated caspase-3 processing (FIG. 7, panel ii, line graph), with the maximal caspase activation corresponding to the fractions that contained the apoptosome complex. On the other hand, no fractions form the sample without cyto c activated capsase-3 processing (panel i). There was a small but measurable amount of capsase-3 activation when the cyto c concentration was reduced to 0.15 μM (panel iii). However, the extent of caspase-3 activation at the reduced level of cyto c increased approximately 4-fold when either compound 2 or 5 was added to the reaction (from 0.36 arbitrary units for the vehicle alone to 1.57 and 1.4 for compounds 2 and 5, respectively, panels iv and vi). […]

Row | SMILES | processing of procaspase-3 (Jurkat cells [1]) | cleavage of PARP (Jurkat cells [2]) | inhibition of cell growth (cytostatic effect) ([3]; 10 μM, in 40 out of 48 cell lines tested, 6 days) | reduction of cell numbers from the initial levels (cytotoxic effect) ([3]; 10 μM, in eight cell lines) | reduction of cell numbers from the initial levels (cytotoxic effect) ([3]; 10 μM, in four cell lines) | cytotoxicity ([3]; 100 μM, virtually all cell lines) | sensitivity relative to the mean response of the panel ([3]; CCRF-CEM, MOLT-4, LOX IMVI, SN 12C, SF-295) | overall activity in the cancer panel ([3]; among compounds 2-5) | viability of cells exposed to compound (plateau) [4] | increase in caspase-3 activation over vehicle alone (caspase-3 activation) | extent of caspase-3 activation (caspase-3 activation)
1 | O=C1C(=O)N(Cc2ccc(Cl)c(Cl)c2)c2ccccc21 [Compound 2] | significant processing | complete cleavage | 50-100% | 50-100% | 10-50% | 100% | 5-10 fold | most active overall | 40-50% | approximately 4 fold | 1.57 arbitrary units
2 | O=C(NCc1ccc(Cl)c(Cl)c1)OC1CCc2ccccc21 (stereo not shown) [Compound 4] | less processing |  |  |  |  |  |  |  |  |  | 
3 | O=C(NCc1ccc(Cl)c(Cl)c1)OC1CCc2ccccc21 (stereo not shown) [Compound 5] | significant processing | limited processing |  |  |  |  |  |  |  | approximately 4 fold | 1.4 arbitrary units
